Laboratory results taken from US9593149B2, “Amylin and calcitonin receptor agonist” (Novo Nordisk A/S, priority 2014, dated 2017).
Converted amounts (≈) assume the structure as drawn. Peptide text beside a SMILES is read from it. * marks the point of attachment. C18 diacid = O=C(O)CCCCCCCCCCCCCCCCC(=O)*

Test: Assay (IV) determination of solubility
Type: physicochemical
Procedure: Assay (IV)—Determination of Solubility
The mimylin peptide was dissolved in water at ˜500 nmol/ml and mixed 1:1 with a series of buffers (100 mM glycylglycine pH 3.0, 100 mM glycylglycine pH 4.0, 100 mM glycylglycine pH 5.0, 100 mM bistrispropane pH 6.0, 100 mM bistrispropane pH 6.5, 100 mM bistrispropane pH 7.0, 100 mM bistrispropane pH 7.5, 100 mM bistrispropane pH 8.0).

Structure (SMILES)	Solubility (pH 3.0)	solubility at 18 h (pH 4.0)	Solubility (pH 5.0)	Solubility (pH 6.0)	Solubility (pH 6.5)	Solubility (pH 7.0)	Solubility (pH 7.5)	Solubility (pH 8.0)	Solubility (pH 4.0)
CC[C@H](C)[C@H](NC(=O)[C@H](C)NC(=O)[C@@H](NC(=O)[C@H](CO)NC(=O)[C@@H](NC(=O)[C@H](CCC(=O)O)NC(=O)[C@H](CO)NC(=O)[C@H](C)NC(=O)[C@H](CCC(=O)O)NC(=O)CCCCCCCCCCCCCCCCC(=O)O)[C@@H](C)CC)[C@@H](C)O)C(=O)N[C@H](C(=O)NCC(=O)N[C@@H](CCCNC(=N)N)C(=O)N[C@@H](CC(C)C)C(=O)N[C@@H](CO)C(=O)N[C@@H](C)C(=O)N[C@@H](CCC(=O)O)C(=O)N[C@@H](CC(C)C)C(=O)N[C@@H](Cc1cnc[nH]1)C(=O)N[C@@H](CCC(=O)O)C(=O)N[C@@H](CC(C)C)C(=O)N[C@@H](C)C(=O)N[C@H](C(=O)N[C@@H](CC(C)C)C(=O)N1CCC[C@H]1C(=O)N[C@@H](CCCNC(=N)N)C(=O)N[C@H](C(=O)N[C@@H](CCC(=O)O)C(=O)N[C@H](C(=O)NCC(=O)N1CCC[C@H]1C(=O)N[C@@H](CCC(=O)O)C(=O)N[C@@H](CO)C(=O)N1CCC[C@H]1C(N)=O)[C@@H](C)O)[C@@H](C)O)[C@@H](C)O)[C@@H](C)CC [compound 37, [N-terminal(C18 diacid), 5I, 9I, 10I]mimylin] ({C18 diacid}-EASEISTAIIGRLSAELHELATLPRTETGPESP-NH2)	≧200 μM	18 µM (≈ 67.9 µg/mL)	≧200 μM	≧200 μM	≧200 μM	≧200 μM	≧200 μM	≧200 μM	–
CC(C)C[C@H](NC(=O)[C@H](CCC(=O)O)NC(=O)[C@H](Cc1cnc[nH]1)NC(=O)[C@H](CC(C)C)NC(=O)[C@H](CCC(=O)O)NC(=O)[C@H](C)NC(=O)[C@H](CO)NC(=O)[C@H](CC(C)C)NC(=O)[C@H](CCCNC(=N)N)NC(=O)CNC(=O)[C@H](CC(C)C)NC(=O)[C@@H](NC(=O)[C@H](C)NC(=O)[C@@H](NC(=O)[C@H](CO)NC(=O)[C@H](CC(C)C)NC(=O)[C@H](CCC(=O)O)NC(=O)[C@H](CO)NC(=O)[C@@H]1CCCN1C(=O)[C@H](CCC(=O)O)NC(=O)CCCCCCCCCCCCCCCCC(=O)O)[C@@H](C)O)C(C)C)C(=O)N[C@@H](C)C(=O)N[C@H](C(=O)N[C@@H](CC(C)C)C(=O)N1CCC[C@H]1C(=O)N[C@@H](CCCNC(=N)N)C(=O)N[C@H](C(=O)N[C@@H](CCC(=O)O)C(=O)N[C@H](C(=O)NCC(=O)N1CCC[C@H]1C(=O)N[C@@H](CCC(=O)O)C(=O)N[C@@H](CO)C(=O)N1CCC[C@H]1C(N)=O)[C@@H](C)O)[C@@H](C)O)[C@@H](C)O [compound 28, [N-terminal(C18 diacid), 2P, 9V]mimylin] ({C18 diacid}-EPSELSTAVLGRLSAELHELATLPRTETGPESP-NH2)	≧200 μM	–	≧200 μM	≧200 μM	≧200 μM	≧200 μM	≧200 μM	≧200 μM	≧200 μM
CC(C)C[C@H](NC(=O)[C@H](C)NC(=O)[C@H](C)NC(=O)[C@@H](NC(=O)[C@H](CO)NC(=O)[C@H](CC(C)C)NC(=O)[C@H](CCC(=O)O)NC(=O)[C@H](CO)NC(=O)[C@H](C)N)[C@@H](C)O)C(=O)NCC(=O)N[C@@H](CCCNC(=N)N)C(=O)N[C@@H](CC(C)C)C(=O)N[C@@H](CO)C(=O)N[C@@H](C)C(=O)N[C@@H](CCC(=O)O)C(=O)N[C@@H](CC(C)C)C(=O)N[C@@H](Cc1cnc[nH]1)C(=O)N[C@@H](CCC(=O)O)C(=O)N[C@@H](CC(C)C)C(=O)N[C@@H](C)C(=O)N[C@H](C(=O)N[C@@H](CC(C)C)C(=O)N1CCC[C@H]1C(=O)N[C@@H](CCCNC(=N)N)C(=O)N[C@H](C(=O)N[C@@H](CCCCNC(=O)CC[C@H](NC(=O)CCCCCCCCCCCCCCCCCCC(=O)O)C(=O)O)C(=O)N[C@H](C(=O)NCC(=O)N[C@@H](CO)C(=O)NCC(=O)N[C@@H](CO)C(=O)N1CCC[C@H]1C(N)=O)[C@@H](C)O)[C@@H](C)O)[C@@H](C)O [compound 55, [des1, 27K(C20 diacid-gGlu), 30S, 31G]mimylin]	≧200 μM	–	≧200 μM	≧200 μM	≧200 μM	≧200 μM	≧200 μM	≧200 μM	≧200 μM
